Measurements published in ChEMBL document CHEMBL1153245, “A profile of the in vitro anti-tumor activity of imidazolium-based ionic liquids” (2010).

Test system: EKVX
Assay: Anticancer activity against human EKVX cells assessed cell growth at 10 uM after 48 hrs by sulforhodamine B assay relative to control
Type: functional

Structure (SMILES)	Activity [%]
Cn1cc[n+](Cc2ccccc2)c1.F[P-](F)(F)(F)(F)F	102.53
Cn1cc[n+](CCO)c1.O=S(=O)([N-]S(=O)(=O)C(F)(F)F)C(F)(F)F	100.51
COCC[n+]1ccn(C)c1.O=S(=O)([N-]S(=O)(=O)C(F)(F)F)C(F)(F)F	108.75
